Results published in PubChem BioAssay (NCI).
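Cultured in 96-well plates, cells were exposed to test compound for 48 hours across five concentrations. GI50 = concentration required for 50% inhibition of growth. TGI is the concentration that stops growth completely.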

Experiments:
Assay in all cases: growth of human tumour cells (NCI), 48 h
ACHN renal = test system: ACHN renal
NCI-H226 lung = test system: NCI-H226 lung
KM20L2 colon = test system: KM20L2 colon
HCC-2998 colon = test system: HCC-2998 colon
SW-620 colon = test system: SW-620 colon
SNB-75 CNS = test system: SNB-75 CNS
NCI-H23 lung = test system: NCI-H23 lung
DLD-1 colon = test system: DLD-1 colon
DU-145 prostate = test system: DU-145 prostate
T-47D breast = test system: T-47D breast

| Compound | TGI (ACHN renal) | TGI (NCI-H226 lung) | TGI (KM20L2 colon) | TGI (HCC-2998 colon) | TGI (SW-620 colon) | TGI (SNB-75 CNS) | TGI (NCI-H23 lung) | TGI (DLD-1 colon) | TGI (DU-145 prostate) | TGI (T-47D breast) | GI50 (NCI-H226 lung) |
| --- | --- | --- | --- | --- | --- | --- | --- | --- | --- | --- | --- |
| O=C(CC(=O)C1CCOC1=O)C(=O)Nc1cccc(Cl)c1 (centres undefined) | > 100 µM | > 100 µM | > 100 µM | > 100 µM | > 100 µM | > 100 µM | > 100 µM | > 100 µM | – | – | – |
| Nc1c(-c2ccccc2-c2c(N)[n+]([O-])c3ccccc3[n+]2[O-])[n+]([O-])c2ccccc2[n+]1[O-] | > 100 µM | > 100 µM | > 100 µM | > 100 µM | > 100 µM | > 100 µM | > 100 µM | > 100 µM | – | – | – |
| COc1cc(/C=C2\[C@H]3c4c(c(OC)c(C)c(OC)c4OC)CC(C(=O)N2Cc2ccccc2)N3C)c(OC)c(C)c1OC | 78.7 µM | 24 µM | 37.2 µM | 62.8 µM | 41.5 µM | 82.7 µM | > 100 µM | > 100 µM | – | – | – |
| CCOC(=O)NC(=O)c1cn(C(CC)COC(=O)NCCCCCCNC(=O)OCC(CC)n2cc(C(=O)NC(=O)OCC)c(=O)[nH]c2=O)c(=O)[nH]c1=O (centres undefined) | > 100 µM | > 100 µM | > 100 µM | > 100 µM | > 100 µM | > 100 µM | – | – | – | – | – |
| CO[C@H]1Nc2c(ccc(C)c2O)C(=O)N2C=C(/C=C/C(N)=O)C[C@@H]12 | – | 0.47 µM | 0.891 µM | 0.132 µM | 17.7 µM | 0.0576 µM | 0.354 µM | > 47.6 µM | > 62 µM | > 7.99 µM | – |
| Nc1ccccc1C(=O)/C=C/c1c(O)ccc2ccccc12 | > 100 µM | > 100 µM | > 100 µM | > 100 µM | > 100 µM | > 100 µM | > 100 µM | > 100 µM | – | – | – |
| CC(C)CCC[C@@H](C)C1CCC2[C@@H]3CC=C4C[C@@H](C(=O)NCCN(C)C)CC[C@]4(C)C3CC[C@@]21C (some centres undefined) | > 100 µM | 51.4 µM | > 100 µM | 65.6 µM | > 100 µM | > 100 µM | 52.1 µM | > 100 µM | – | – | – |
| COc1c(C)n(CCO)ccc1=O | > 100 µM | > 100 µM | > 100 µM | – | > 100 µM | > 100 µM | – | > 100 µM | – | – | – |
| Nc1nc(-c2ccc(Cl)c([N+](=O)[O-])c2)cs1 | > 100 µM | – | > 100 µM | > 100 µM | > 100 µM | 92.7 µM | > 100 µM | > 100 µM | – | – | – |
| Cc1ccc(C)c(N2C/C(=N\NC(=O)CC#N)C(c3nc4ccccc4s3)C(=O)C2=O)c1 (centres undefined) | > 100 µM | > 100 µM | > 100 µM | > 100 µM | > 100 µM | > 100 µM | > 100 µM | > 100 µM | – | – | – |
| CCNC(=O)/C(=C/c1ccc(OC)cc1)c1cc(OC)c(OC)c(OC)c1 | > 100 µM | 88.7 µM | 13.5 µM | > 39.3 µM | > 100 µM | > 73.4 µM | > 85.3 µM | > 100 µM | 80.2 µM | > 100 µM | – |
| CC(C(=O)c1ccc(Cl)cc1)/C(=N/NC(=O)NN)C(=O)Nc1cccc(C(F)(F)F)c1 (centres undefined) | > 100 µM | > 100 µM | > 100 µM | > 100 µM | > 100 µM | > 100 µM | > 100 µM | > 100 µM | – | – | – |
| ClC(Cl)=C1C(=C(Cl)Cl)C(Cl)(Cl)C1(Cl)Cl | 8.81 µM | 1.89 µM | 11.3 µM | 13.7 µM | 3.75 µM | 13.5 µM | 3.57 µM | 3.3 µM | 23.4 µM | 23.6 µM | 422 nM |
| Cc1[nH]c2ccccc2c1C1Cc2ccccc2N1C(=O)C#Cc1ccc([N+](=O)[O-])cc1 (centres undefined) | > 100 µM | > 100 µM | > 100 µM | > 100 µM | > 100 µM | > 100 µM | > 100 µM | > 100 µM | – | – | – |
| Cn1c(=O)nc2n(-c3cc(C(F)(F)F)cc(C(F)(F)F)c3)c3ccccc3nc-2c1=O | > 100 µM | > 100 µM | > 100 µM | > 100 µM | > 100 µM | 47.1 µM | > 100 µM | – | – | – | – |
| COC(=O)/C(=N/O)C(C(=O)C=C(C)C)C(=O)C(=O)Nc1nc2ccc([N+](=O)[O-])cc2s1 (centres undefined) | 67.1 µM | 72.1 µM | > 100 µM | > 100 µM | > 100 µM | – | 83.2 µM | – | – | – | – |
| COC(=O)C(=O)C(C(C)=O)C(=O)NCc1ccc(OC)c(OC)c1 (centres undefined) | > 100 µM | > 100 µM | > 100 µM | > 100 µM | > 100 µM | > 100 µM | > 100 µM | > 100 µM | – | – | – |
